Assay results reported in ChEMBL document CHEMBL1201862, “PubChem BioAssay data set” (2004).
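Grown in 96-well plates, cells were treated for 48 hours with each compound at five concentrations. Insufficient inhibition: endpoint recorded as highest concentration tested. GI50 marks 50% less growth.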 Activity calls are given as the source filed them. Cut-off read from the data, not from the text of the source: active = GI50 up to about 1.1 µM and inactive = higher.

Tests used:
Assay in all cases: NCI-60 cell line screen, 48 h
[1] = test system: Malme-3M
[2] = test system: HOP-92
[3] = test system: SK-MEL-2
[4] = test system: SNB-19
[5] = test system: PC-3
[6] = test system: NCI/ADR-RES
[7] = test system: MDA-MB-231
[8] = test system: K562
[9] = test system: SN12C
[10] = test system: RPMI-8226
[11] = test system: HL-60
[12] = test system: SW-620
[13] = test system: SK-MEL-5
[14] = test system: CAKI-1
[15] = test system: ACHN
[16] = test system: LOX IMVI
[17] = test system: SF-539
[18] = test system: Hs-578T
[19] = test system: SF-268

Measured: GI50

COc1cc(C(c2cc3c(cc2O)OCO3)N2CCCC2)cc(OC)c1OC (centres undefined)
inactive: [1] 6.73 µM | [2] 7.96 µM | [3] 19.6 µM | [4] 19.3 µM | [5] 17.3 µM | [6] 17.3 µM | [7] 15.9 µM | [8] 4.37 µM | [9] 12.2 µM | [10] 11.6 µM | [11] 2.07 µM | [12] 3.4 µM | [13] 16.4 µM | [14] 13.6 µM | [15] 15.4 µM | [16] 14.6 µM

N#CCc1nc(O)c2ccccc2n1
inactive: [2] > 100 µM | [3] > 100 µM | [4] > 100 µM | [5] > 100 µM | [6] > 100 µM | [7] > 100 µM | [17] > 100 µM | [9] > 100 µM | [11] 28.3 µM | [12] > 100 µM | [13] > 100 µM | [14] > 100 µM | [15] > 100 µM | [16] 56.4 µM

CN1c2ccccc2C(=O)NC12CCN(Cc1ccccc1)CC2
inactive: [1] 87.1 µM | [2] 18.3 µM | [4] 27.5 µM | [18] 36.7 µM | [6] > 100 µM | [7] 96.6 µM | [17] 50.7 µM | [9] 49.4 µM | [10] 47.2 µM | [19] 89.7 µM | [11] 30.5 µM | [12] 55.3 µM | [13] 54.8 µM | [15] 31.2 µM | [16] 46 µM

O[C@@H]1C[C@@H]2N[C@@](O)(C[C@@H]2O)[C@H]1O
inactive: [1] > 100 µM | [2] > 100 µM | [4] > 100 µM | [18] > 100 µM | [5] > 100 µM | [6] > 100 µM | [7] > 100 µM | [8] > 100 µM | [17] > 100 µM | [9] > 100 µM | [10] > 100 µM | [19] > 100 µM | [11] > 100 µM | [12] > 100 µM | [13] > 100 µM | [15] > 100 µM | [16] > 100 µM

COC(=O)C1=C(C(=O)OC)SC(=CC#CC=C2SC(C(=O)OC)=C(C(=O)OC)S2)S1
inactive: [1] 15.7 µM | [2] 16.2 µM | [3] 12.9 µM | [4] 6.41 µM | [8] > 87.5 µM | [17] 2.19 µM | [9] 13.5 µM | [10] > 100 µM | [19] > 32.4 µM | [11] > 100 µM | [12] 26.9 µM | [13] 27 µM | [14] 25.5 µM | [15] 11.8 µM | [16] 9.71 µM

O=C1CCCCCCCCCCC1CCCCCBr (centres undefined)
inactive: [1] 15.8 µM | [2] 18.4 µM | [3] 16.9 µM | [4] 25.8 µM | [18] 46.8 µM | [5] 31.2 µM | [6] 21.7 µM | [7] 20.3 µM | [8] 16.1 µM | [17] 22.8 µM | [9] 22.3 µM | [19] 30.8 µM | [12] 42.5 µM | [13] 15.3 µM | [14] 31.2 µM | [15] 27.4 µM | [16] 19 µM

O=C1c2ccoc2C(=O)c2oc(=O)ccc21
inactive: [1] 3.16 µM | [2] 21.6 µM | [3] 6.59 µM | [4] 16 µM | [8] 6.46 µM | [17] 3.45 µM | [9] 11.1 µM | [10] 3.67 µM | [19] 9.14 µM | [11] 2.32 µM | [12] 4.23 µM | [13] 1.7 µM | [14] > 45 µM | [15] 2.86 µM | [16] 2.88 µM

CC1(C)C(CCO)CC1n1cc(I)c(=O)[nH]c1=O (centres undefined)
inactive: [2] > 100 µM | [3] > 100 µM | [4] > 100 µM | [18] 90.6 µM | [5] > 100 µM | [6] > 100 µM | [7] 86.3 µM | [8] > 100 µM | [17] > 100 µM | [9] > 100 µM | [10] > 100 µM | [19] > 100 µM | [12] > 100 µM | [13] > 100 µM | [14] > 100 µM | [15] > 100 µM | [16] > 100 µM

COc1c2nc(CCl)[nH]c(=O)c2c(OC)c2nc(CCl)[nH]c(=O)c12
inactive: [1] > 100 µM | [2] > 100 µM | [3] > 100 µM | [4] > 100 µM | [8] > 100 µM | [17] > 100 µM | [9] > 100 µM | [10] > 100 µM | [19] > 100 µM | [11] > 100 µM | [12] > 100 µM | [13] > 100 µM | [14] > 100 µM | [15] > 100 µM | [16] > 100 µM

CCC12C=CCN3CC[C@]4(C(=C(C(=O)OC)[C@@H]1Nc1ccn(C5OC(COC(C)=O)C(OC(C)=O)C5OC(C)=O)c(=O)n1)Nc1ccccc14)C32 (some centres undefined)
inactive: [1] 4.78 µM | [2] 4.31 µM | [3] 2.39 µM | [4] 4.73 µM | [8] 5.08 µM | [17] 5 µM | [9] 4.39 µM | [10] 5.46 µM | [19] 5.55 µM | [11] 4.51 µM | [12] 4.66 µM | [13] 4.5 µM | [14] 5.37 µM | [15] 4.43 µM | [16] 4.26 µM

CCOC(=O)C(=CNC(=S)N/N=C1\C(=O)Nc2ccccc21)C(=O)OCC
inactive: [2] 82 µM | [3] > 100 µM | [4] > 100 µM | [18] 48.2 µM | [5] > 100 µM | [6] 48.2 µM | [7] > 100 µM | [8] > 100 µM | [17] > 100 µM | [9] > 100 µM | [10] > 100 µM | [19] 43.8 µM | [11] 31 µM | [12] > 100 µM | [13] 90.8 µM | [14] 21.1 µM | [15] > 100 µM | [16] > 100 µM

Nc1n[n+]([O-])c2ccccc2[n+]1[O-] [TIRAPAZAMINE]
inactive: [1] 50.4 µM | [2] 29.7 µM | [3] > 100 µM | [4] > 100 µM | [8] > 100 µM | [17] > 100 µM | [9] > 100 µM | [10] 57.4 µM | [19] > 100 µM | [11] > 100 µM | [12] > 100 µM | [13] 40.5 µM | [14] 46.2 µM | [15] 48.6 µM | [16] > 100 µM
